Some results are limits rather than exact numbers.

This test relates to ROCK kinase. Put plainly: In vitro ROCK kinase inhibition activity evaluation (33P-ATP filter-binding). Type of test: biochemical. Details: key to ROCK inhibition activity: 1 μM ≦ + < 5 μM; 0.1 μM ≦ ++ < 1 μM; +++ < 0.1 μM; −− N/A. As to conditions: 1 nM ROCK kinase, 20 μM Long S6 Kinase substrate peptide, 2 h room temperature. The method, then:
Biological Activity Experiment: In Vitro ROCK Kinase Inhibition Activity Evaluation
Experimental Objective: Test ROCK Inhibition IC50 Value of Invented Compounds
Buffer solution: 20 mM Hepes (pH 7.5), 10 mM MgCl2, 1 mM EGTA, 0.02% Brij35, 0.02 mg/ml BSA, 0.1 mM Na3VO4, 2 mM DTT, 1% DMSO
To a freshly prepared buffer solution was added ROCK substrate Long S6 Kinase substrate peptide, with concentration at 20 μM. 1 nM ROCK kinase was then added, and well stirred. A series of DMSO solution (starting from 10 μM, dilution factor 3) of testing article was added using Echo550. The mixture was incubated for 20 min at room temperature, then was added ^33P-ATP (radioactive intensity 10 μCi/μL) to initiate reaction and further reacted for 2 h at room temperature. The mixture was filtered through P81 ion exchange paper (Whatman #3698-915), and washed by 0.75% phosphoric acid. The intensity of radiation was measured by Filter-Binding method.
The inhibition activity of the testing articles were measured by comparing the residue kinase activity to blank substrate (pure DMSO). Using Prism software ((GraphPad Software, San Diego Calif., USA) to calculate IC50 and curve.
For `NC1CN(S(=O)(=O)c2cccc3cnccc23)CC12CC2` (stereo not drawn) [Example 10, 5-(isoquinolin-5-ylsulfonyl)-5-azaspiro[2.4]heptan-7-amine], the ROCK inhibition activity result is “−−”.

Take `O=S(=O)(c1cccc2cncc(C(F)F)c12)N1CC[C@@H]2NCC[C@@H]21` (stereo in doubt) [Example 31, 4-(difluoromethyl)-5-((hexahydropyrrolo[3,2-b]pyrrol-1(2H)-yl)sulfonyl)isoquinoline]: the ROCK inhibition activity result is given as “−−”.

For orientation: IC50 means the concentration needed to halve the response being measured. Turning to `O=S(=O)(c1cccc2cncc(F)c12)N1C[C@@H]2CCN[C@@H]2C1` [Example 25, 4-fluoro-5-((hexahydropyrrolo[3,4-b]pyrrol-5(1H)-yl)sulfonyl)isoquinoline], the IC50 was 100 to 1000 nM.

Turning to `O=S(=O)(c1cccc2cnccc12)N1CCC2CNCC2C1` (stereo not drawn) [Example 15, 5-((hexahydro-1H-pyrrolo[3,4-c]pyridin-5(6H)-yl)sulfonyl)isoquinoline], the IC50 lay within 100 to 1000 nM.

Consider `O=S(=O)(c1cccc2cncc(Cl)c12)N1CCC2NCCCC21` (stereo not drawn) [Example 21, 4-chloro-5-((octahydro-1H-pyrrolo[3,2-b]pyridin-1-yl)sulfonyl)isoquinoline], for which the IC50 lay in the range of 100 to 1000 nM.

For `NC12CCC1CN(S(=O)(=O)c1cccc3cnccc13)C2` (stereo not drawn) [Example 55, 3-(isoquinolin-5-ylsulfonyl)-3-azabicyclo[3.2.0]heptan-1-amine], the IC50 was in the range of 1000 to 5000 nM.

Regarding `Cc1cncc2cccc(S(=O)(=O)N3CC4CCNCC4C3)c12` (stereo not drawn) [Example 44, 5-((hexahydro-1H-pyrrolo[3,4-c]pyridin-2(3H)-yl)sulfonyl)-4-methylisoquinoline], the IC50 was below 100 nM.

For the molecule `CCNC12CC1CN(S(=O)(=O)c1cccc3cnccc13)C2` (stereo not drawn) [Example 57, N-ethyl-3-(isoquinolin-5-ylsulfonyl)-3-azabicyclo[3.1.0]hexan-1-amine], the IC50 lay within 1000 to 5000 nM.

In the case of `O=S(=O)(c1cccc2cncc(F)c12)N1CC2CCCNC2C1` (stereo not drawn) [Example 30, 4-fluoro-5-((hexahydro-1H-pyrrolo[3,4-b]pyridin-6(2H)-yl)sulfonyl)isoquinoline], the IC50 was in the range of 100 to 1000 nM.

On to `O=S(=O)(c1cccc2cncc(F)c12)N1C[C@H]2CNC[C@H]2C1` [Example 29, 4-fluoro-5-((hexahydropyrrolo[3,4-c]pyrrol-2(1H)-yl)sulfonyl)isoquinoline], for which the IC50 fell in the range of 100 to 1000 nM.

For the molecule `O=S(=O)(c1cccc2cncc(F)c12)N1CCC2NCCCC21` (stereo not drawn) [Example 28, 4-fluoro-5-((octahydro-1H-pyrrolo[3,2-b]pyridin-1-yl)sulfonyl)isoquinoline], the IC50 was in the range of 100 to 1000 nM.

As for `O=S(=O)(c1cccc2cncc(Cl)c12)N1CC2CCNCC2C1` (stereo not drawn) [Example 23, 4-chloro-5-((hexahydro-1H-pyrrolo[3,4-c]pyridin-2(3H)-yl)sulfonyl)isoquinoline], the IC50 lay in the range of 100 to 1000 nM.

With `NC1CCN(S(=O)(=O)c2cccc3cnccc23)C12CC2` (stereo not drawn) [Example 13, 4-(isoquinolin-5-ylsulfonyl)-4-azaspiro[2.4]heptan-7-amine], the IC50 is below 100 nM.

Turning to `O=S(=O)(c1cccc2cncc(C(F)(F)F)c12)N1C[C@@H]2CCN[C@@H]2C1` (stereo in doubt) [Example 46, 5-((hexahydropyrrolo[3,4-b]pyrrol-5 (1H)-yl)sulfonyl)-4-(trifluoromethyl)isoquinoline], the ROCK inhibition activity result was “−−”.

Consider `COc1cncc2cccc(S(=O)(=O)N3CCC4NCCCC43)c12` (stereo not drawn) [Example 51, 4-methoxy-5-((octahydro-1H-pyrrolo[3,2-b]pyridin-1-yl)sulfonyl)isoquinoline], for which the IC50 was 1000 to 5000 nM.

For the molecule `Cc1cncc2cccc(S(=O)(=O)N3CCC4NCCCC4C3)c12` (stereo not drawn) [Example 45, 6-((4-methylisoquinolin-5-yl)sulfonyl)decahydro-1,6-naphthyridine], the IC50 was 1000 to 5000 nM.

Take `O=S(=O)(c1cccc2cnccc12)N1CCC2CCNC2C1` (stereo not drawn) [Example 9, 5-((hexahydro-1H-pyrrolo[2,3-c]pyridin-6(2H)-yl)sulfonyl) isoquinoline]: the IC50 fell in the range of 1000 to 5000 nM.

With `O=S(=O)(c1cccc2cncc(C(F)F)c12)N1C[C@@H]2CCN[C@@H]2C1` (stereo in doubt) [Example 32, 4-(difluoromethyl)-5-((hexahydropyrrolo[3,4-b]pyrrol-5(1H)-yl)sulfonyl)isoquinoline], the ROCK inhibition activity entry is recorded as “−−”.

Values taken from patent US9856264B2, “Isoquinolinesulfonyl derivative as RHO kinase inhibitor” (MEDSHINE DISCOVERY INC., priority 2014, dated 2018).
